In US20250066339A1, “HETEROCYCLE-SUBSTITUTED AROMATIC COMPOUND, METHOD FOR PREPARING SAME, HERBICIDAL COMPOSITION, AND USE THEREOF” (QINGDAO KINGAGROOT CHEMICAL COMPOUND CO., LTD., priority 2022, published 2025):

Assays:
Assay in all cases: Post-emergence test on weeds
Assay type in all cases: in vivo
Set-up in all cases: key: Level 10: completely dead; Level 9: growth control rate greater than or equal to 90% and less than 100%; Level 8: growth control rate greater than or equal to 80% and less than 90%; Level 7: growth control rate greater than or equal to 70% and less than 80%; Level 6: growth control rate greater than or equal to 60% and less than 70%; Level 5: growth control rate greater than or equal to 50% and less than 60%; Level 4: growth control rate greater than or equal to 40% and less than 50%; Level 3: growth control rate greater than or equal to 30% and less than 40%; Level 2: growth control rate greater than or equal to 20% and less than 30%; Level 1: growth control rate less than 20%; Level 0: no effect
Conditions in all cases: 3 weeks after application, fresh weight control rate
Veronica polita = tested on: Veronica polita
Text: (§1) The activity level criteria for plant damage (i.e., growth control rate) are as follows: • Level 10: completely dead; • Level 9: growth control rate greater than or equal to 90% and less than 100%; • Level 8: growth control rate greater than or equal to 80% and less than 90%; • Level 7: growth control rate greater than or equal to 70% and less than 80%; • Level 6: growth control rate greater than or equal to 60% and less than 70%; • Level 5: growth control rate greater than or equal to 50% and less than 60%; • Level 4: growth control rate greater than or equal to 40% and less than 50%; • Level 3: growth control rate greater than or equal to 30% and less than 40%; • Level 2: growth control rate greater than or equal to 20% and less than 30%; • Level 1: growth control rate less than 20%; • Level 0: no effect.
(§2) The above growth control rates are fresh weight control rates.
(§3) Monocotyledonous and dicotyledonous weed seeds (Descurainia sophia, Capsella bursa-pastoris, Abutilon theophrasti, Galium spurium, Stellaria media, Lithospermum arvense, Rorippa indica, Alopecurus aequalis, Alopecurus japonicus, Eleusine indica, Beckmannia syzigachne, Sclerochloa dura, Erigeron canadensis, Phleum paniculatum, Veronica polita, Bromus japonicus, Aegilops tauschii, Phalaris arundinacea, Amaranthus retroflexus, Chenopodium, Commelina communis, Cichorium endivia, Convolvulus arvensis, Cirsium arvense, Solanum nigrum, Acalypha australis, Digitaria sanguinalis, Echinochloa crus-galli, Setaria viridis, Setaria pumila, Leptochloa chinensis, Monochoria vaginalis, Sagittaria trifolia, Schoenoplectiella juncoides, Cyperus rotundus, Cyperus iria, Cyperus difformis, Fimbristylis, Portulaca oleracea, Xanthium sibiricum, Ipomoea nil, Eschenbachia japonica, etc.) and major crop seeds (wheat, maize, paddy rice, soybean, cotton, oilseed rape, millet, sorghum, potato, sesame, castor plant, etc.) were placed in plastic pots filled with soil and then covered with 0.5-2 cm of soil to allow them to grow in a favorable greenhouse environment. Two weeks after sowing, the test plants were treated at the stage of 2-3 leaves. The test compounds of the present invention were individually dissolved with acetone, then added with Tween® 80, with 1.5 L/ha of methyl oleate emulsifiable concentrate as a synergist, diluted into solutions of certain concentrations using certain amount of water, and sprayed to the plants using a spray tower. After drug application, the experimental results on weeds were collected after 3 weeks of cultivation in a greenhouse. The compounds were applied at 500, 250, 125, 60, 15, and 7.5 g a.i./ha in triplicate, and the results were averaged.

Digitaria sanguinalis = tested on: Digitaria sanguinalis
Text: as §1, §2, §3

Echinochloa crus-galli = tested on: Echinochloa crus-galli
Text: as §1, §2, §3

Setaria viridis = tested on: Setaria viridis
Text: as §1, §2, §3

Amaranthus retroflexus = tested on: Amaranthus retroflexus
Text: as §1, §2, §3

Abutilon theophrasti = tested on: Abutilon theophrasti
Text: as §1, §2, §3

CCO/C(C)=N/OC(=O)C1(C)CC(c2cc(-c3ncc(C(F)(F)F)cc3Cl)c(F)cc2Cl)=NO1 (stereo not drawn) [Compound 69]
10: activity level (growth control rate) Veronica polita (Veronica polita; 60 g a.i./ha) | activity level (growth control rate) Digitaria sanguinalis (Digitaria sanguinalis; 60 g a.i./ha) | activity level (growth control rate) Echinochloa crus-galli (Echinochloa crus-galli; 60 g a.i./ha) | activity level (growth control rate) Setaria viridis (Setaria viridis; 60 g a.i./ha) | activity level (growth control rate) Amaranthus retroflexus (Amaranthus retroflexus; 60 g a.i./ha) | activity level (growth control rate) Abutilon theophrasti (Abutilon theophrasti; 60 g a.i./ha)

CC1(C(=O)OCCF)CC(c2cc(-c3ncc(C(F)(F)F)cc3Cl)c(F)cc2Cl)=NO1 (stereo not drawn) [Compound 44]
10: activity level (growth control rate) Veronica polita (Veronica polita; 15 g a.i./ha) | activity level (growth control rate) Digitaria sanguinalis (Digitaria sanguinalis; 15 g a.i./ha) | activity level (growth control rate) Echinochloa crus-galli (Echinochloa crus-galli; 15 g a.i./ha) | activity level (growth control rate) Setaria viridis (Setaria viridis; 15 g a.i./ha) | activity level (growth control rate) Amaranthus retroflexus (Amaranthus retroflexus; 15 g a.i./ha) | activity level (growth control rate) Abutilon theophrasti (Abutilon theophrasti; 15 g a.i./ha)

CCOC(=O)C1(C)CC(c2cc(-c3ncc(OC)cc3Cl)c(F)cc2Cl)=NO1 (stereo not drawn) [Compound 102]
10: activity level (growth control rate) Veronica polita (Veronica polita; 60 g a.i./ha) | activity level (growth control rate) Digitaria sanguinalis (Digitaria sanguinalis; 60 g a.i./ha) | activity level (growth control rate) Echinochloa crus-galli (Echinochloa crus-galli; 60 g a.i./ha) | activity level (growth control rate) Setaria viridis (Setaria viridis; 60 g a.i./ha) | activity level (growth control rate) Amaranthus retroflexus (Amaranthus retroflexus; 60 g a.i./ha) | activity level (growth control rate) Abutilon theophrasti (Abutilon theophrasti; 60 g a.i./ha)

CCSC(=O)C1(C)CC(c2cc(-c3ncc(C(F)(F)F)cc3Cl)c(F)cc2Cl)=NO1 (stereo not drawn) [Compound 78]
10: activity level (growth control rate) Veronica polita (Veronica polita; 15 g a.i./ha) | activity level (growth control rate) Digitaria sanguinalis (Digitaria sanguinalis; 15 g a.i./ha) | activity level (growth control rate) Echinochloa crus-galli (Echinochloa crus-galli; 15 g a.i./ha) | activity level (growth control rate) Setaria viridis (Setaria viridis; 15 g a.i./ha) | activity level (growth control rate) Amaranthus retroflexus (Amaranthus retroflexus; 15 g a.i./ha) | activity level (growth control rate) Abutilon theophrasti (Abutilon theophrasti; 15 g a.i./ha)

C=C(C)c1cnc(-c2cc(C3=NOC(C)(C(=O)ON=C(C)C)C3)c(Cl)cc2F)c(Cl)c1 (stereo not drawn) [Compound 113]
10: activity level (growth control rate) Veronica polita (Veronica polita; 60 g a.i./ha) | activity level (growth control rate) Digitaria sanguinalis (Digitaria sanguinalis; 60 g a.i./ha) | activity level (growth control rate) Echinochloa crus-galli (Echinochloa crus-galli; 60 g a.i./ha) | activity level (growth control rate) Setaria viridis (Setaria viridis; 60 g a.i./ha) | activity level (growth control rate) Amaranthus retroflexus (Amaranthus retroflexus; 60 g a.i./ha) | activity level (growth control rate) Abutilon theophrasti (Abutilon theophrasti; 60 g a.i./ha)

C/C(=N\OC(=O)C1(C)CC(c2cc(-c3ncc(C(F)(F)F)cc3Cl)c(F)cc2Cl)=NO1)C(F)(F)F (stereo not drawn) [Compound 67]
10: activity level (growth control rate) Veronica polita (Veronica polita; 60 g a.i./ha) | activity level (growth control rate) Digitaria sanguinalis (Digitaria sanguinalis; 60 g a.i./ha) | activity level (growth control rate) Echinochloa crus-galli (Echinochloa crus-galli; 60 g a.i./ha) | activity level (growth control rate) Setaria viridis (Setaria viridis; 60 g a.i./ha) | activity level (growth control rate) Amaranthus retroflexus (Amaranthus retroflexus; 60 g a.i./ha) | activity level (growth control rate) Abutilon theophrasti (Abutilon theophrasti; 60 g a.i./ha)
